Drawing on ChEMBL document CHEMBL1212908, “Flavonoids in the poisonous plant Oxytropis falcata” (J Nat Prod, 2010), this text covers IC20 and IC50 for 4 compounds.

A value given as a limit tells only on which side of the number the result lay.

Test [1] concerns Radical scavenging activity. Put plainly: Antioxidant activity assessed as DPPH free radical scavenging activity after 30 mins. Format: functional.
The next test relates to HL-60. Put plainly: Cytotoxicity against human HL60 cells by MTT assay. The test is classed as functional, cell-based.

`COc1ccc([C@@H]2COC3=CC(=O)CC[C@]3(O)C2)c(O)c1OC` [OXYTROPISOFLAVAN B]: in test [1], the IC20 is above 50 µM. In the test on HL-60, this compound gave an IC50 above 50 µM.

On to `COc1ccc([C@@H]2COc3cc(O)c(C(c4ccc(O)cc4O)C(O)Cc4ccc(O)cc4)cc3C2)c(O)c1OC` (some centres not stated) [OXYTROPISOFLAVAN A], for which the IC20 in test [1] is above 50 µM. Moreover, the concentration for half-maximal inhibition (IC50) with HL-60 was above 50 µM.

As to VITAMIN E, the IC20 in test [1] is 7.6 µM.

In the case of `COc1c(O)cc2c(c1OC)O[C@H]1c3ccc(O)cc3OC[C@@H]21`, the concentration for an effect of 20% (IC20) in test [1] came to 3.8 µM. For the same compound, the IC50 in the test on HL-60 was above 50 µM.
